How the values were obtained:
[1] = Liver microsome metabolism stability, rat liver microsome; type: in vitro ADME, SD rat; details: 0.5 mg protein/mL, test sample 1 μM, β-NADPH
Description: (§1) Test samples: the homemade compounds 1, 2, 4 and 5 of the present invention (for their chemical names and preparation methods, see the preparation example for each compound).
(§2) a mixed liver microsomes of SD rat and human both purchased from XenoTech, with batch Nos.: 1410271 (SD rat) and 1410013 (human) respectively, wherein the microsomal protein concentrations both were 20 mg mL^−1;
(§3) experimental promoter β-NADPH purchased from Roche (batch No.: 524F0231); and a phosphate buffer solution (pH 7.4) made in the lab.
(§4) An appropriate amount of the test sample powder was weighed accurately, and dissolved in an appropriate amount of dimethyl sulfoxide (DMSO) to a concentration of 1 mM; and the solution was then diluted by 20 times with methanol to yield a 50 μM working solution.
(§5) (1) According to the proportions in table 3 “Composition of the incubation system for liver microsome metabolism stability experiment” above, for each compound, 6 mL of PBS (100 mM), 0.6 mL of MgCl2 solution (20 mM) and 3.66 mL of H2O were made into a mixed solution 1 for the incubation system (not containing the microsomes, the test sample and β-NADPH).
(§6) (2) Liver microsomes (20 mg protein/mL) were taken from a refrigerator (−80° C.), and were placed on a thermostatic water bath oscillator (37° C.) and pre-incubated for 3 mins.
(§7) (3) For each compound, 1.88 mL of the mixed solution 1 for the incubation system was added with 55 μL of microsomes to obtain a mixed solution 2 for the incubation system (not containing the test sample and β-NADPH).
(§8) (4) Sample group (containing the microsomes and D-NADPH): 616 μL of mixed solution 2 for the incubation system was added with 14 μL of the test sample working solution (with a concentration of 50 μM), and with 70 μL of R-NADPH working solution (10 mM). The resulted solution was well mixed, and the resulted solution was then duplicated. The time points of sampling were at 0 min, 5th min, 10th min, 20th min, 30th min and 60th min.
(§9) (5) Control group (containing the microsomes, and water instead of D-NADPH): 264 μL of mixed solution 2 for the incubation system was added with 6 μL of the test sample working solution (50 μM), and with 30 μL of water. The resulted solution was well mixed, and the resulted solution was then duplicated. The time points of sampling were at 0 min and 60th min.
(§10) (6) 50 μL of sample was taken from an incubating sample tube at each predetermined time point, added to a terminating sample tube (containing 300 μL of cold terminator), and vortexed; and the reaction was terminated.
(§11) (7) after 10 mins of vortexing, the solution was centrifuged for 5 mins (12,000 rpm).
(§12) (8) 100 μL of supernatant was taken and added with 100 μL of water, and the mixture solution was thoroughly vortexed; and the solution was then analyzed by LC-MS/MS.
(§13) Percentages of residual contents were calculated according to the following formula.

[2] = Liver microsome metabolism stability, human liver microsome; type: in vitro ADME; details: 0.5 mg protein/mL, test sample 1 μM, β-NADPH
Description: as §1, §2, §3, §4, §5, §6, §7, §8, §9, §10, §11, §12, §13

BSEP mRNA in HepG2 cells [3] = assay: Relative expression of BSEP mRNA in HepG2 cells (qPCR), Experimental Example 1; type: cell-based, human; details: 24 hrs, expression under 3 μM of PX-104 as 100%
Description: compounds of the present invention (for their chemical names and preparation methods, see the preparation example of each compound); compound PX-104 and compound 30-70 (for their structures, see the background of the invention, and for their preparation methods, see patent applications WO2011020615A1 and WO2012087519A1).
(§14) Cells were digested with pancreatin and collected, and the concentration of the cells was determined; according to the counting result, the cells were resuspended to a density of 7.5×10^5 cells/mL; 2 mL of the cell suspension was inoculated in each well of a 6-well cell culture plate; and the culture plate was placed in an incubator and cultured under the conditions of 37° C. and 5% CO2 for 24 hrs.
The to-be-tested compounds were diluted to 0.3 mM and 3 mM with DMSO; and 5 μL of each stock solution diluted in the previous step was added to 5 mL of medium individually. The concentrations of the obtained working solutions were 0.3 μM and 3 μM respectively. In the control group, medium was prepared by using equivoluminal DMSO instead of the stock solutions; the cell culture plate was taken out from the incubator; the medium was removed from the cell culture plate, and the working solutions and the control medium were added correspondingly; and the culture plate was then put back into the incubator and cultured under the conditions of 37° C. and 5% CO2 for 24 hrs.
after treatment for 24 hrs, the cell culture plate was taken out, and the medium was removed from the plate; the cells were rinsed three times with pre-cooled (4° C.) PBS; and 200 μL of pancreatin (preheated to 37° C.) was added to each well, and the plate was then gently shaken such that the pancreatin could evenly cover the plate bottom. The culture plate was then placed back into the incubator and incubated until the cells were separated from the plate bottom. 1 mL of medium was added to terminate digestion. The solution was gently pipetted and blown for several times with a pipettor, all the substances in each well were pipetted into a 1.5 mL Rnase-free centrifuge tube and centrifuged at 200×g for 5 mins; supernatants were removed to collect cell samples.
Cell lysis: Fresh RNA lysis buffer was prepared (wherein 10 μL of 2-mercaptoethanol was added to 1 mL of lysis buffer); 600 μL of lysis buffer was added to each cell sample; the cells were lysed completely by 1 to 2 mins of vigorous vortexing; the cell lysates were centrifuged at 12,000×g for 5 mins; and the supernatants were transferred to 1.5 mL Rnase-free centrifuge tubes.
Extraction and purification of RNA: An equal amount of 70% ethanol was added to each cell lysate; the centrifuge tubes were then shaken vigorously, and the buffer was mixed sufficiently, so that the particulate precipitates that might be formed after the addition of ethanol were dispersed as even as possible; and adsorption columns were put into collecting tubes, and the mixtures were transferred to the adsorption columns. 700 μL was transferred at most each time; and the solutions were centrifuged at 12,000×g under room temperature for 15 secs. The solutions in the collecting tubes were discarded, and the adsorption columns were put into the collecting tubes once again; and all the remaining mixtures were then transferred into the adsorption columns. 700 μL of eluent I was added to the adsorption column; and the solutions were centrifuged at 12,000×g under room temperature for 15 secs. The adsorption columns were put into new collecting tubes; 500 μL of eluent II was added to the adsorption column; and the solutions were centrifuged at 12,000×g under room temperature for 15 secs. […]

BSEP mRNA in HepG2 cells [4] = assay: Relative expression of BSEP mRNA in HepG2 cells, EC50 (Experimental Example 3); type: cell-based; details: Homo sapiens, 24 hrs
Description: (§15) compounds of the present invention (for their chemical names and preparation methods, see the preparation example for each compound).
(§16) HepG2 cell: human liver cancer cell;
BSEP: bile salt export pump;
(§17) Control: compound 1-1B with a structure shown as follows, prepared according to a prior art method (for detailed information, see patent application WO2012087519A1).
as §14
(§18) The compounds were diluted to 3000, 1000, 200, 8, 1.6, 0.32, 0.0128, 0.00256 and 0.000512 μM with DMSO. Compound solutions of different concentrations obtained in the previous step were further diluted by 1,000 times with media to obtain working solutions, and a medium containing 0.1% of DMSO was adopted as a control group. The cell culture plate was taken out from the incubator, the medium was removed, and the working solutions and the control medium were added. The culture plate was placed back into the incubator and cultured under the conditions of 37° C. and 5% CO2 for 24 hrs. […]

SHP mRNA in AML12 cells = assay: Relative expression of SHP mRNA in AML12 cells, EC50 (Experimental Example 4); type: cell-based; details: Mus musculus, 24 hrs
Description: as §15
AML12 cells: mouse liver cells.
as §17
as §14, with “of 7.5×10^4” for “of 7.5×10^5”, “cells/mL; 1” for “cells/mL; 2”, “a 12-well” for “a 6-well”
The compound were diluted to 1000, 200, 8, 1.6, 0.32, 0.128, 0.0256 and 0.00512 μM with DMSO. Compound solutions of different concentrations obtained in the previous step were further diluted by 1000 times with media to obtain working solutions, and a medium containing 0.1% of DMSO was adopted as a control group. The cell culture plate was taken out from the incubator, the medium was removed, and the working solutions and the control medium were added. The culture plate was placed back into the incubator and cultured under the conditions of 37° C. and 5% CO2 for 24 hrs.
after treatment for 24 hrs, the cell culture plate was taken out from the incubator, and the medium was removed from the plate; the cells were rinsed three times with pre-cooled (4° C.) PBS (phosphate buffer solution); and 200 μL of pancreatin (preheated to 37° C.) was added to each well, and the plate was then gently shaken such that the pancreatin could evenly cover the plate bottom. The culture plate was then placed back into the incubator and incubated until the cells were separated from the plate bottom. 1 mL of medium was added to terminate digestion. […]

SHP mRNA in HepG2 cells = assay: Relative expression of SHP mRNA in HepG2 cells, EC50 (Experimental Example 3); type: cell-based; details: Homo sapiens, 24 hrs
Description: as §15, §16
SHP: small heterodimer partner;
as §17, §14, §18

[5] = tested on: CYP7A1 mRNA in HepG2 cells; assay: Relative expression of CYP7A1 mRNA in HepG2 cells, IC50 (Experimental Example 3); type: cell-based; details: Homo sapiens, 24 hrs
Description: as §15, §16
CYP7A1: cholesterol 7-alpha hydroxylase;
as §17, §14, §18

Row | Residual content (%) after 60 minutes of incubation [1] | Residual content (%) after 60 minutes of incubation [2] | SMILES | relative expression of BSEP mRNA in HepG2 cells (BSEP mRNA in HepG2 cells [3]; Table 2, 0.3 μM) | relative expression of BSEP mRNA in HepG2 cells (BSEP mRNA in HepG2 cells [3]; Table 2, 3 μM) | relative expression of BSEP mRNA in HepG2 cells (BSEP mRNA in HepG2 cells [3]; Table 1, 0.3 μM) | relative expression of BSEP mRNA in HepG2 cells (BSEP mRNA in HepG2 cells [3]; Table 1, 3 μM) | EC50 (BSEP mRNA in HepG2 cells [4]) | EC50 (SHP mRNA in AML12 cells) | EC50 (SHP mRNA in HepG2 cells) | IC50 [5]
1 | 53% | 49% | COc1cc(C(=O)O)cc2sc(N3C[C@H]4C[C@@H]3C[C@@H]4OCc3c(-c4c(Cl)cccc4Cl)noc3C3CC3)nc12 (racemic) [Compound 1, 2-((RS, 4RS, 5SR)-5-((5-cyclopropyl-3-(2,6-dichlorophenyl)isoxazol-4-yl)methoxy)-2-azabicyclo[2.2.1]heptan-2-yl)-4-methoxybenzo[d]thiazole-6-carboxylic acid] | 121% | 102% |  |  |  |  |  | 
2 | 94% | 55% | O=C(O)c1ccc2nc(N3C[C@H]4C[C@@H]3C[C@@H]4OCc3c(-c4c(Cl)cccc4Cl)noc3C3CC3)sc2c1 (racemic) [Compound 2, 2-((1RS, 4RS, 5SR)-5-((5-cyclopropyl-3-(2,6-dichlorophenyl)isoxazol-4-yl)methoxy)-2-azabicyclo[2.2.1]heptan-2-yl)benzo[d]thiazole-6-carboxylic acid] |  |  | 145% | 179% |  |  |  | 
3 | 69% | 54% | O=C(O)c1cc(F)c2nc(N3C[C@H]4C[C@@H]3C[C@@H]4OCc3c(-c4c(Cl)cccc4Cl)noc3C3CC3)sc2c1 (racemic) [Compound 4, 2-((1RS, 4RS, 5SR)-5-((5-cyclopropyl-3-(2,6-dichlorophenyl)isoxazol-4-yl)methoxy)-2-azabicyclo[2.2.1]heptan-2-yl)-4-fluorobenzo[d]thiazole-6-carboxylic acid] | 97% | 96% |  |  |  |  |  | 
4 | 49% | 31% | Cc1cc(C(=O)O)cc2sc(N3C[C@H]4C[C@@H]3C[C@@H]4OCc3c(-c4c(Cl)cccc4Cl)noc3C3CC3)nc12 (racemic) [Compound 5, 2-((1RS, 4RS, 5SR)-5-((5-cyclopropyl-3-(2,6-dichlorophenyl)isoxazol-4-yl)methoxy)-2-azabicyclo[2.2.1]heptan-2-yl)-4-methylbenzo[d]thiazole-6-carboxylic acid] | 103% | 123% |  |  |  |  |  | 
5 |  |  | O=C(O)c1cc(F)c2nc(N3[C@@H]4CC[C@H]3C[C@@H](OCc3c(-c5ccccc5OC(F)(F)F)noc3C3CC3)C4)sc2c1 [Compound 1-1B, reference compound] |  |  |  |  | 0.75 nM | 1.51 nM | 0.26 nM | 0.1 nM
6 |  |  | O=C(O)c1ccc(C2CC2c2ccc(OCc3c(-c4c(Cl)cccc4Cl)noc3C3CC3)cc2Cl)cc1 (stereo not drawn) [PX-104, reference compound] | 45% | 100% | 60% | 100% |  |  |  | 

Row | SMILES | Residual content (%) after 60 minutes of incubation [1] | Residual content (%) after 60 minutes of incubation [2] | relative expression of BSEP mRNA in HepG2 cells (BSEP mRNA in HepG2 cells [3]; Table 2, 0.3 μM) | relative expression of BSEP mRNA in HepG2 cells (BSEP mRNA in HepG2 cells [3]; Table 2, 3 μM) | relative expression of BSEP mRNA in HepG2 cells (BSEP mRNA in HepG2 cells [3]; Table 1, 0.3 μM) | relative expression of BSEP mRNA in HepG2 cells (BSEP mRNA in HepG2 cells [3]; Table 1, 3 μM) | EC50 (BSEP mRNA in HepG2 cells [4]) | EC50 (SHP mRNA in AML12 cells) | EC50 (SHP mRNA in HepG2 cells) | IC50 [5]
7 | O=C(O)c1ccc2nc(N3[C@@H]4CC[C@H]3C[C@@H](OCc3c(-c5c(Cl)cccc5Cl)noc3C3CC3)C4)sc2c1 [Compound 30-70, reference compound] |  | 20% |  |  | 105% | 146% |  |  |  | 

From patent US11352358B2, “FXR agonist” (XUANZHU BIOPHARMACEUTICAL CO., LTD., priority 2017, dated 2022)
